According to patent US7105551B2, “Thiazole derivatives for treating PPAR related disorders” (SmithKline Beecham Corporation, priority 2000, dated 2006):

Legend:
hPPAR α = molecular target: T1, hPPAR α (Homo sapiens, UniProt Q07869); assay: Transient transfection (transactivation) assay in CV-1 cells, hPPAR alpha; format: cell-based; details: GAL4 chimeric receptor, SPAP reporter
T1 construct: expressed in transfected cells; host or cells: CV-1 cells
T1 sequence (Q07869 239-466 limits assumed): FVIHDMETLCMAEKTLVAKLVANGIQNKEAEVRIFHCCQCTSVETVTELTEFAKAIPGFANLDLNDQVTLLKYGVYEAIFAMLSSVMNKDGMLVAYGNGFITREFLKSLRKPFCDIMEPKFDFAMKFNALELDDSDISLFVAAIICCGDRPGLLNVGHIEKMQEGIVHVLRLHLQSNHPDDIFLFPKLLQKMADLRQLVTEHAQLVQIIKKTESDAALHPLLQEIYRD
From the text: (§1) Compounds were screened for functional potency in transient transfection assays in CV-1 cells for their ability to activate the PPAR subtypes (transactivation assay). A previously established chimeric receptor system was utilized to allow comparison of the relative transcriptional activity of the receptor subtypes on the same target gene and to prevent endogenous receptor activation from complicating the interpretation of results. […] The ligand binding domains for murine and human PPAR alpha, PPAR gamma, and PPAR delta were each fused to the yeast transcription factor GAL4 DNA binding domain. CV-1 cells were transiently transfected with expression vectors for the respective PPAR chimera along with a reporter construct containing five copies of the GAL4 DNA binding site driving expression of secreted placental alkalin phosphatase (SPAP) and beta-galactosidase. After 16 h, the medium was exchanged to DME medium supplemented with 10% delipidated fetal calf serum and th test compound at the appropriate concentration. After an additional 24 h, cell extracts were prepared and assayed for alkaline phosphatase and β-galactosidase activity. […] The positive control in the hPPAR alpha assays was 2-methyl-2-[4-{[(4-methyl-2-[4-trifluoromethylphenyl]-thiazol-5-yl-carbonyl)amino]methyl}-phenoxy]propionic acid. The positive control for PPAR delta assays was 2-{2-methyl-4-[({4-methyl-2-{trifluoromethyl)phenyl]-1,3-thiazol-5-yl}methyl)sulfanyl]phenoxy}acetic acid.

hPPAR γ = molecular target: T2, hPPAR γ (Homo sapiens, UniProt P37231); assay: Transient transfection (transactivation) assay in CV-1 cells, hPPAR gamma; format: cell-based; details: GAL4 chimeric receptor, SPAP reporter
T2 construct: expressed in transfected cells; host or cells: CV-1 cells
T2 sequence (P37231 238-503 limits assumed): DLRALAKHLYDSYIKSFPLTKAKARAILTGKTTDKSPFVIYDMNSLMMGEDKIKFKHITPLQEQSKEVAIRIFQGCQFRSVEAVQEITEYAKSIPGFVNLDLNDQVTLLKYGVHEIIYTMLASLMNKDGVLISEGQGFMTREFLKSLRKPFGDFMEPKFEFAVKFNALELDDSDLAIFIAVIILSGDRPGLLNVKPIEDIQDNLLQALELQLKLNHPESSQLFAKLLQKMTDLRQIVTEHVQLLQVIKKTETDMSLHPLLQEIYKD
From the text: as §1

hPPAR δ = molecular target: T3, hPPAR δ (Homo sapiens, UniProt Q03181); assay: Transient transfection (transactivation) assay in CV-1 cells, hPPAR delta; format: cell-based; details: GAL4 chimeric receptor, SPAP reporter
T3 construct: expressed in transfected cells; host or cells: CV-1 cells
T3 sequence (Q03181 211-439 limits assumed): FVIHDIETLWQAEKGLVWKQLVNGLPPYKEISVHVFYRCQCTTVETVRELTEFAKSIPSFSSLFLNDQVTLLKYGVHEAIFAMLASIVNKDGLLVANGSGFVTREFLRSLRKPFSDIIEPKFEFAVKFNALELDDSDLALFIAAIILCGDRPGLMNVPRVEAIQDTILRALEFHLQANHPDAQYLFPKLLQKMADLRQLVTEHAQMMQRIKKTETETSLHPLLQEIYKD
From the text: as §1

Work on Cc1cc(O[C@H](C)c2sc(-c3ccc(C(F)(F)F)cc3)nc2C)ccc1OC(C)(C)C(=O)O [Example 11, (R)-2-methyl-2-(2-methyl-4-{1-[4-methyl-2-(4-trifluoromethylphenyl)-thiazol-5-yl]ethoxy}-phenoxy)-propionic acid] yielded an EC50 (hPPAR α) of 10 nM, an EC50 (hPPAR γ) of 300 nM and an EC50 (hPPAR δ) of 0.7 nM.

In the case of Cc1cc(OC(C)c2sc(-c3ccc(C(F)(F)F)cc3F)nc2C)ccc1OC(C)(C)C(=O)O (stereo not shown) [Example 19, 2-(4-{1-[2-(2-fluoro-4-trifluoromethyl-phenyl)-4-methyl-thiazol-5-yl]-ethoxy}-2-methyl-phenoxy)-2-methyl-propionic acid], the melting point is reported as 133 °C.

For CC[C@@H](Oc1ccc(OC(C)(C)C(=O)O)c(C)c1)c1sc(-c2ccc(C(F)(F)F)cc2)nc1C [Example 29, (R)-2-methyl-2-(2-methyl-4-{1-[4-methyl-2-(4-trifluoromethyl-phenyl)thiazol-5-yl]propoxy}-phenoxy)-propionic acid], the EC50 (hPPAR α) was 9 nM, the EC50 (hPPAR γ) was 240 nM and the EC50 (hPPAR δ) was 1.5 nM.

With Cc1cc(O[C@@H](C)c2sc(-c3ccc(C(F)(F)F)cc3)nc2C)ccc1OC(C)(C)C(=O)O [Example 9, (S)-2-methyl-2-(2-methyl-4-{1-[4-methyl-2-(4-trifluoromethylphenyl)-thiazol-5-yl]ethoxy}-phenoxy)-propionic acid] the EC50 (hPPAR α) was 16 nM, the EC50 (hPPAR γ) was 7000 nM and the EC50 (hPPAR δ) was 3 nM.

CC[C@H](Oc1ccc(OC(C)(C)C(=O)O)c(C)c1)c1sc(-c2ccc(C(F)(F)F)cc2)nc1C [Example 31, (S)-2-methyl-2-(2-methyl-4-{1-[4-methyl-2-(4-trifluoromethyl-phenyl)-thiazol-5-yl]propoxy}-phenoxy)-propionic acid] gave an EC50 (hPPAR α) of 5 nM, an EC50 (hPPAR γ) of 660 nM and an EC50 (hPPAR δ) of 1.7 nM.
